≈ marks a conversion by molar mass, not a printed value. Where two headings read alike, the source gives them in different places.
Key:
Assay type in all cases: cell-based
[1] = system: S. aureus; assay: Sensitivity of PP to antibiotics, standard serial microbroth-dilution method (Example 24); settings: for MIC: Staphylococcus aureus
[2] = system: PP+MM within the biosample; assay: Presence of bacterial growth in the wells supplemented with amoxicillin; set-up: key: “+” - presence of bacterial growth, antibiotic is ineffective; “−”- absence of bacterial growth, antibiotic is effective
Protocol: Next, biosamples were plated to the wells of 48 well plate filled with Columbia+Pept Meat Agar supplemented with Amoxicillin. We modulated a QID, BID and TID administration of amoxicillin on PP+MM within the biosample. The following assumptions were made.
Next we evaluated Presence of bacterial growth in the wells supplemented with amoxicillin.

[3] = system: bacteria of endotracheal aspirate, sputum, BAL, wound swab from patients with ventilator associated pneumonia; assay: Signs of bacterial growth on multi-well agar test system supplemented with antibiotics (naked eye or microscopy)
Protocol: Endotracheal aspirate (n=3), sputum (n=3), BAL (n=2), wound swab (n=3) from patients with ventilator associated pneumonia were resuspended in PBS and 0.15 μL were plated on 24 well plate test system filled with Mixed medium (Columbia agar +Pepted Meat agar) (MM), Luria Broth (LB) agar, Pepted Meat agar (PMA), Columbia agar (CA), or Schaedler agar (SA).
Two wells were antibiotic free.
Biosamples were plated to the medium with a sterile swab with a slight pressure to the agar and making circular movements. Plates was incubated at 37 C and the analysis of the of microbial growth was monitored every 15 minutes from […] to 5 h, then hourly from 5 h to 8 h and then at 18 and 24 h post plating with a naked eye or with an AmScope microscope on 20× magnification with 12 mp camera.
Three methods (algorithms) how to analyze bacterial growth were used.
Method (Algorithm) #1. Lab technician, analyzed the appearance of bacterial growth by comparing the signs of bacterial growth in each well supplemented with antibiotic(s) at certain timepoint, with the signs of bacterial growth in the same well at previous time point(s).
Method (Algorithm)#2. Lab technician analyzed the appearance of bacterial growth by comparing the signs of bacterial growth in each well supplemented with antibiotic(s) with bacterial growth in antibiotic-free control
Method (Algorithm) #3. Lab technician analyzed the absence of bacterial growth in the wells in fixed time period of 3.0 h, 3.5 h; 4 h and 24 h.

[4] = system: C. albicans, non-albicans Candida spp. Aspergillus spp. in oral swabs from patients with oral candidiasis; assay: Signs of fungal growth on 12 well plate test system supplemented with antifungal antibiotics; settings: naked eye examination, samples resistant to the antibiotic
Protocol: Oral swabs (n=6) from patients with confirmed oral candidiasis caused by C. albicans, non-albicans Candida spp. Aspergillus spp., were dissolved with PBS and 0.1 uL were plated on 12 well plate test system filled with Mixed Medium 1 (see above), Mixed Medium 2 (Sabouraud agar+Potato Dextrose Agar+vitamins B12+B7) (MM2), Sabouraud agar (SA), Potato Dextrose Agar (PDA), Sabouraud's Heart Infusion (SABHI) agar. 11 wells were filled with media supplemented with antibiotics (taken at mean concentration of each antibiotic achieved in lungs at different timpoints post drug administration)—Nystatin, Amphotericin B, Clotrimazole, Fluconazole, Isavuconazole, Terbinafin, Posaconazole, Voriconazole, Anidulafungin, Caspofungin, Micafungin. One well was antibiotic free.
Plates was incubated at 30 C and the analysis of the presence/absence of microbial growth was monitored every 15 minutes from […] to 5 h, then hourly from 5 h to 8 h and then at 18 and 24 h post plating with a naked eye.
Three methods (algorithms) how to analyze fungal growth were used.
Method (Algorithm) #1. Lab technician, analyzed the appearance of fungal growth by comparing the signs of fungal growth in each well supplemented with antibiotic(s) at certain timepoint, with the signs of funal growth in the same well at previous time point(s).
Method (Algorithm)#2. Lab technician analyzed the appearance of fungal growth by comparing the signs of fungal growth in each well supplemented with antibiotic(s) with fungal growth in antibiotic-free control
Method (Algorithm) #3. Lab technician analyzed the absence of fungal growth in the wells in fixed time period of 3.5 h; 5 h and 24 h.

[5] = Method (Algorithm) #1, MM1 medium
[6] = Method (Algorithm) #1, MM2 medium
[7] = Method (Algorithm) #1, PDA medium
[8] = Method (Algorithm) #1, SA (Sabouraud agar)
[9] = Method (Algorithm) #1, SABHI medium
[10] = Method (Algorithm) #2, MM1 medium
[11] = Method (Algorithm) #2, MM2 medium
[12] = Method (Algorithm) #2, PDA medium
[13] = Method (Algorithm) #2, SA (Sabouraud agar)
[14] = Method (Algorithm) #2, SABHI medium

## CC1(C)S[C@@H]2[C@H](NC(=O)[C@H](N)c3ccc(O)cc3)C(=O)N2[C@H]1C(=O)O [Amoxicillin]
[1]; Biosample 1, S. aureus
  Sensitivity (CLSI interpretation): S
  MIC: 0.25 mg/L (≈ 0.684 µM)
[1]; Biosample 2, S. aureus
  Sensitivity (CLSI interpretation): I
[1]; Biosample 3, S. aureus
  Sensitivity (CLSI interpretation): S
[1]; Biosample 2, S. aureus, read-out: MIC
  MIC: 4 mg/L (≈ 10.9 µM)
[1]; Biosample 3, S. aureus, read-out: MIC
  MIC: 2 mg/L (≈ 5.47 µM)
[2]; Biosample 1 (PP S. aureus), C0-6 h
  Presence of bacterial growth in the wells: −
[2]; Biosample 1 (PP S. aureus), C0-12 h
  Presence of bacterial growth in the wells: −
[2]; Biosample 1 (PP S. aureus), C0-24 h
  Presence of bacterial growth in the wells: −
[2]; Biosample 2 (PP S. aureus), C0-6 h
  Presence of bacterial growth in the wells: −
[2]; Biosample 2 (PP S. aureus), C0-12 h
  Presence of bacterial growth in the wells: +
[2]; Biosample 2 (PP S. aureus), C0-24 h
  Presence of bacterial growth in the wells: +
[2]; Biosample 3 (PP S. aureus), C0-6 h
  Presence of bacterial growth in the wells: −
[2]; Biosample 3 (PP S. aureus), C0-12 h
  Presence of bacterial growth in the wells: −
[2]; Biosample 3 (PP S. aureus), C0-24 h
  Presence of bacterial growth in the wells: +

## Piperacillin-tazobactam
[3]; microscopy examination, Method (Algorithm) #1, CA medium
  Mean hour at which bacterial growth became visible on the wells supplemented with a certain antibiotic: 3.5 h
[3]; microscopy examination, Method (Algorithm) #1, LB medium
  Mean hour at which bacterial growth became visible on the wells supplemented with a certain antibiotic: 4 h
[3]; microscopy examination, Method (Algorithm) #1, MM medium
  Mean hour at which bacterial growth became visible on the wells supplemented with a certain antibiotic: 3.5 h
[3]; microscopy examination, Method (Algorithm) #1, PMA medium
  Mean hour at which bacterial growth became visible on the wells supplemented with a certain antibiotic: 3.5 h
[3]; microscopy examination, Method (Algorithm) #1, SA medium
  Mean hour at which bacterial growth became visible on the wells supplemented with a certain antibiotic: 3.5 h
[3]; microscopy examination, Method (Algorithm) #2, CA medium
  Mean hour at which bacterial growth became visible on the wells supplemented with a certain antibiotic: 3.5 h
[3]; microscopy examination, Method (Algorithm) #2, LB medium
  Mean hour at which bacterial growth became visible on the wells supplemented with a certain antibiotic: 4 h
[3]; microscopy examination, Method (Algorithm) #2, MM medium
  Mean hour at which bacterial growth became visible on the wells supplemented with a certain antibiotic: 4 h
[3]; microscopy examination, Method (Algorithm) #2, PMA medium
  Mean hour at which bacterial growth became visible on the wells supplemented with a certain antibiotic: 4 h
[3]; microscopy examination, Method (Algorithm) #2, SA medium
  Mean hour at which bacterial growth became visible on the wells supplemented with a certain antibiotic: 3.5 h
[3]; naked eye examination, Method (Algorithm) #1, CA medium, samples resistant to the antibiotic
  Mean hour at which bacterial growth became visible on the wells supplemented with a certain antibiotic: 3.5 h
[3]; naked eye examination, Method (Algorithm) #1, LB medium, samples resistant to the antibiotic
  Mean hour at which bacterial growth became visible on the wells supplemented with a certain antibiotic: 4 h
[3]; naked eye examination, Method (Algorithm) #1, MM medium, samples resistant to the antibiotic
  Mean hour at which bacterial growth became visible on the wells supplemented with a certain antibiotic: 3.5 h
[3]; naked eye examination, Method (Algorithm) #1, PMA medium, samples resistant to the antibiotic
  Mean hour at which bacterial growth became visible on the wells supplemented with a certain antibiotic: 3.5 h
[3]; naked eye examination, Method (Algorithm) #1, SA medium, samples resistant to the antibiotic
  Mean hour at which bacterial growth became visible on the wells supplemented with a certain antibiotic: 4 h
[3]; naked eye examination, Method (Algorithm) #2, CA medium, samples resistant to the antibiotic
  Mean hour at which bacterial growth became visible on the wells supplemented with a certain antibiotic: 5.5 h
[3]; naked eye examination, Method (Algorithm) #2, LB medium, samples resistant to the antibiotic
  Mean hour at which bacterial growth became visible on the wells supplemented with a certain antibiotic: 5 h
[3]; naked eye examination, Method (Algorithm) #2, MM medium, samples resistant to the antibiotic
  Mean hour at which bacterial growth became visible on the wells supplemented with a certain antibiotic: 4 h
[3]; naked eye examination, Method (Algorithm) #2, PMA medium, samples resistant to the antibiotic
  Mean hour at which bacterial growth became visible on the wells supplemented with a certain antibiotic: 4 h
[3]; naked eye examination, Method (Algorithm) #2, SA medium, samples resistant to the antibiotic
  Mean hour at which bacterial growth became visible on the wells supplemented with a certain antibiotic: 5.5 h

## CN(C/C=C/C#CC(C)(C)C)Cc1cccc2ccccc12 [Terbinafin]
[4]; [5]
  Mean hour at which fungal growth became visible on the wells supplemented with a certain antibiotic: 4.5 h
[4]; [6]
  Mean hour at which fungal growth became visible on the wells supplemented with a certain antibiotic: 5 h
[4]; [7]
  Mean hour at which fungal growth became visible on the wells supplemented with a certain antibiotic: 5 h
[4]; [8]
  Mean hour at which fungal growth became visible on the wells supplemented with a certain antibiotic: 5 h
[4]; [9]
  Mean hour at which fungal growth became visible on the wells supplemented with a certain antibiotic: 5 h
[4]; [10]
  Mean hour at which fungal growth became visible on the wells supplemented with a certain antibiotic: 4.5 h
[4]; [11]
  Mean hour at which fungal growth became visible on the wells supplemented with a certain antibiotic: 5.5 h
[4]; [12]
  Mean hour at which fungal growth became visible on the wells supplemented with a certain antibiotic: 8 h
[4]; [13]
  Mean hour at which fungal growth became visible on the wells supplemented with a certain antibiotic: 6.5 h
[4]; [14]
  Mean hour at which fungal growth became visible on the wells supplemented with a certain antibiotic: 6.5 h

## CC[C@H](C)C[C@H](C)CCCCCCCCC(=O)N[C@H]1C[C@@H](O)[C@@H](NCCN)NC(=O)[C@@H]2[C@@H](O)CCN2C(=O)[C@H]([C@H](O)CCN)NC(=O)[C@H]([C@H](O)[C@@H](O)c2ccc(O)cc2)NC(=O)[C@@H]2C[C@@H](O)CN2C(=O)[C@H]([C@@H](C)O)NC1=O [Caspofungin]
[4]; [5]
  Mean hour at which fungal growth became visible on the wells supplemented with a certain antibiotic: 3.5 h
[4]; [6]
  Mean hour at which fungal growth became visible on the wells supplemented with a certain antibiotic: 5 h
[4]; [7]
  Mean hour at which fungal growth became visible on the wells supplemented with a certain antibiotic: 6 h
[4]; [8]
  Mean hour at which fungal growth became visible on the wells supplemented with a certain antibiotic: 5.5 h
[4]; [9]
  Mean hour at which fungal growth became visible on the wells supplemented with a certain antibiotic: 7 h
[4]; [10]
  Mean hour at which fungal growth became visible on the wells supplemented with a certain antibiotic: 6 h
[4]; [11]
  Mean hour at which fungal growth became visible on the wells supplemented with a certain antibiotic: 5.5 h
[4]; [12]
  Mean hour at which fungal growth became visible on the wells supplemented with a certain antibiotic: 8 h
[4]; [13]
  Mean hour at which fungal growth became visible on the wells supplemented with a certain antibiotic: 7.5 h
[4]; [14]
  Mean hour at which fungal growth became visible on the wells supplemented with a certain antibiotic: 8.5 h

Source: patent US20240182945A1, “PRODUCTS FOR REGULATION OF EUKARYOTIC AND MICROBIAL CELLS GROWTH” (priority 2021, published 2024)
